# In patent publication US20240208992A1, “MACROCYCLES AS CFTR MODULATORS” (Idorsia Pharmaceuticals Ltd, priority 2021, published 2024):
# Molecular target: human F508del-CFTR (Homo sapiens, UniProt P13569, DEL508-508)
# Assay: F508del-CFTR cell surface expression (corrector activity), DiscoveRx ß-galactosidase complementation chemiluminescence assay in recombinant U2OS cell line;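 also: U2OS cells co-expressing ProLink-tagged F508del-CFTR and a membrane-anchored enzyme acceptor, where more surface CFTR restores β-galactosidase activity measured by chemiluminescence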
# Settings: U2OS cell line, 16h compound incubation; for EC50: EC50, F508del-CFTR cell surface expression, geomean values; for Emax: U2OS, in relation to the Emax of the corrector lumacaftor (=100%), arithmetic mean values
# human F508del-CFTR, sequence (P13569 with tags, fused parts or gaps DEL508-508): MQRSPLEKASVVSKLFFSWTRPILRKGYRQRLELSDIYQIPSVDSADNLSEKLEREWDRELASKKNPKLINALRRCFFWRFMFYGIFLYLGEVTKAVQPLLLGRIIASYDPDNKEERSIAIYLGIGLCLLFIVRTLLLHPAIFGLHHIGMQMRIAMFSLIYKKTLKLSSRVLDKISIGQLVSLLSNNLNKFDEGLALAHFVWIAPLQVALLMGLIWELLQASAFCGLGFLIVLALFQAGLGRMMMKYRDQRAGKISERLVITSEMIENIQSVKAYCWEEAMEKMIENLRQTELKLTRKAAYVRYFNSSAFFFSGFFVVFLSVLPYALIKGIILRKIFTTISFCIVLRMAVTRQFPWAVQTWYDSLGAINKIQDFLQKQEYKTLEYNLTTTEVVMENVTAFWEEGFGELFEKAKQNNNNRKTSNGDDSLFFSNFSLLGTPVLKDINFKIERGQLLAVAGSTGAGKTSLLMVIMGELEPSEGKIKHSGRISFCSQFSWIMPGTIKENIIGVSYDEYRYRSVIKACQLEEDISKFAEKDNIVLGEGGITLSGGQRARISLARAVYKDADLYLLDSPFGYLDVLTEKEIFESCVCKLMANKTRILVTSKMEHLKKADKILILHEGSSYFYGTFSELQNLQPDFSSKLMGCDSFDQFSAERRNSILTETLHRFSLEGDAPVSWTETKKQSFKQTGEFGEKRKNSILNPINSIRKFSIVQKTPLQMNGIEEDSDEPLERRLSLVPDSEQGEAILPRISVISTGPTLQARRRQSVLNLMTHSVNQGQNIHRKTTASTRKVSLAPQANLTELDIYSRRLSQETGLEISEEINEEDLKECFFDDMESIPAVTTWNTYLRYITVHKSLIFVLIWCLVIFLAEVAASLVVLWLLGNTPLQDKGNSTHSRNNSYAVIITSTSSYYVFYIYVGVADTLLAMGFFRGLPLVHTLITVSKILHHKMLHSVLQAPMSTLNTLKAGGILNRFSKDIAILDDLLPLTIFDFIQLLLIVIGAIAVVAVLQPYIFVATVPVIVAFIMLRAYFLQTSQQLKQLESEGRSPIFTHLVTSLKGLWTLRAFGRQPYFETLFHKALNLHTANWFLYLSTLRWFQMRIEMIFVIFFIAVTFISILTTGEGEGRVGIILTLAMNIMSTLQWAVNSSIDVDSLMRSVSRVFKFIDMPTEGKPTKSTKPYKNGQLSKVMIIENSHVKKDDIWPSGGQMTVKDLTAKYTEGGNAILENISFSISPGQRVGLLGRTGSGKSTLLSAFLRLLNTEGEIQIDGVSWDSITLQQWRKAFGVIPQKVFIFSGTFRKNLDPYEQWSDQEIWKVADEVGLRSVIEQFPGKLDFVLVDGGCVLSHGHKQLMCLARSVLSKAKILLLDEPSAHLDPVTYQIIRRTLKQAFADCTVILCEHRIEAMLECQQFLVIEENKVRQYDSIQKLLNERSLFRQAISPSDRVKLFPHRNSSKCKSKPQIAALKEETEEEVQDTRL
EC50,Emax,SMILES
369 nM,158%,"CC(C)C[C@H]1C(=O)N(C)C2(CC2)C(=O)N[C@H](Cc2ccccc2)COc2cnc3ccccc3c2C(=O)N[C@H](C(=O)NCCc2ccc(F)c(F)c2)CC(=O)N1C [Example 113, (3′S,7′S,13′R)-13′-benzyl-N-(3,4-difluorophenethyl)-7′-isobutyl-6′,9′-dimethyl-1′,5′,8′,11′-tetraoxo-2′,3′,4′,5′,6′,7′,8′,9′,11′,12′,13′,14′-dodecahydro-1′H-spiro[cyclopropane-1,10′-[1]oxa[4,7,10,14]tetraazacycloheptadecino[17,16-c]quinoline]-3′-carboxamide]"
924 nM,220%,"CCc1nc(CCNC(=O)[C@@H]2CC(=O)N(C)[C@@H](CC(C)C)C(=O)N(C)C3(CC3)C(=O)N[C@H](Cc3ccccc3)COc3cnc4ccccc4c3C(=O)N2)no1 [Example 114, (3′S,7′S,13′R)-13′-benzyl-N-(2-(5-ethyl-1,2,4-oxadiazol-3-yl)ethyl)-7′-isobutyl-6′,9′-dimethyl-1′,5′,8′,11′-tetraoxo-2′,3′,4′,5′,6′,7′,8′,9′,11′,12′,13′,14′-dodecahydro-1′H-spiro[cyclopropane-1,10′-[1]oxa[4,7,10,14]tetraazacycloheptadecino[17,16-c]quinoline]-3′-carboxamide]"
554 nM,253%,"CC(C)C[C@H]1C(=O)N(C)C2(CC2)C(=O)N[C@H](Cc2ccccc2)COc2cnc3ccccc3c2C(=O)N[C@H](C(=O)NCCc2noc(C(C)(C)C)n2)CC(=O)N1C [Example 116, (3′S,7′S,13′R)-13′-benzyl-N-(2-(5-(tert-butyl)-1,2,4-oxadiazol-3-yl)ethyl)-7′-isobutyl-6′,9′-dimethyl-1′,5′,8′,11′-tetraoxo-2′,3′,4′,5′,6′,7′,8′,9′,11′,12′,13′,14′-dodecahydro-1′H-spiro[cyclopropane-1,10′-[1]oxa[4,7,10,14]tetraazacycloheptadecino[17,16-c]quinoline]-3′-carboxamide]"
776 nM,237%,"Cc1cc(CCNC(=O)[C@@H]2CC(=O)N(C)[C@@H](CC(C)C)C(=O)N(C)C3(CC3)C(=O)N[C@H](Cc3ccccc3)COc3cnc4ccccc4c3C(=O)N2)no1 [Example 117, (3′S,7′S,13′R)-13′-benzyl-7′-isobutyl-6′,9′-dimethyl-N-(2-(5-methylisoxazol-3-yl)ethyl)-1′,5′,8′,11′-tetraoxo-2′,3′,4′,5′,6′,7′,8′,9′,11′,12′,13′,14′-dodecahydro-1′H-spiro[cyclopropane-1,10′-[1]oxa[4,7,10,14]tetraazacycloheptadecino[17,16-c]quinoline]-3′-carboxamide]"
329 nM,265%,"CC(C)C[C@H]1C(=O)N(C)C2(CC2)C(=O)N[C@H](Cc2ccccc2)COc2cnc3ccccc3c2C(=O)N[C@H](C(=O)NCCc2cc(C3CC3)on2)CC(=O)N1C [Example 118, (3′S,7′S,13′R)-13′-benzyl-N-(2-(5-cyclopropylisoxazol-3-yl)ethyl)-7′-isobutyl-6′,9′-dimethyl-1′,5′,8′,11′-tetraoxo-2′,3′,4′,5′,6′,7′,8′,9′,11′,12′,13′,14′-dodecahydro-1′H-spiro[cyclopropane-1,10′-[1]oxa[4,7,10,14]tetraazacycloheptadecino[17,16-c]quinoline]-3′-carboxamide]"
328 nM,248%,"CC(C)C[C@H]1C(=O)N(C)C2(CC2)C(=O)N[C@H](Cc2ccccc2)COc2cnc3ccccc3c2C(=O)N[C@H](C(=O)NCCc2cc(C(C)(C)C)on2)CC(=O)N1C [Example 119, (3′S,7′S,13′R)-13′-benzyl-N-(2-(5-(tert-butyl)isoxazol-3-yl)ethyl)-7′-isobutyl-6′,9′-dimethyl-1′,5′,8′,11′-tetraoxo-2′,3′,4′,5′,6′,7′,8′,9′,11′,12′,13′,14′-dodecahydro-1′H-spiro[cyclopropane-1,10′-[1]oxa[4,7,10,14]tetraazacycloheptadecino[17,16-c]quinoline]-3′-carboxamide]"
331 nM,212%,"CC(C)C[C@H]1C(=O)N(C)C2(CC2)C(=O)N[C@H](Cc2ccccc2)COc2cnc3ccccc3c2C(=O)N[C@H](C(=O)NCCc2cc(F)cc(F)c2)CC(=O)N1C [Example 120, (3′S,7′S,13′R)-13′-benzyl-N-(3,5-difluorophenethyl)-7′-isobutyl-6′,9′-dimethyl-1′,5′,8′,11′-tetraoxo-2′,3′,4′,5′,6′,7′,8′,9′,11′,12′,13′,14′-dodecahydro-1′H-spiro[cyclopropane-1,10′-[1]oxa[4,7,10,14]tetraazacycloheptadecino[17,16-c]quinoline]-3′-carboxamide]"
615 nM,354%,"CC(C)C[C@H]1C(=O)N(C)C2(CC2)C(=O)N[C@H](Cc2ccccc2)COc2cnc3ccccc3c2C(=O)N[C@H](C(=O)NCCc2nc(C3CC3)no2)CC(=O)N1C [Example 121, (3′S,7′S,13′R)-13′-benzyl-N-(2-(3-cyclopropyl-1,2,4-oxadiazol-5-yl)ethyl)-7′-isobutyl-6′,9′-dimethyl-1′,5′,8′,11′-tetraoxo-2′,3′,4′,5′,6′,7′,8′,9′,11′,12′,13′,14′-dodecahydro-1′H-spiro[cyclopropane-1,10′-[1]oxa[4,7,10,14]tetraazacycloheptadecino[17,16-c]quinoline]-3′-carboxamide]"
324 nM,292%,"CC(C)C[C@H]1C(=O)N2CCCC[C@@H]2C(=O)N[C@H](Cc2ccccc2)COc2cnc3ccccc3c2C(=O)N[C@H](C(=O)NCCc2ccc(-c3ncccn3)cc2)CC(=O)N1C [Example 122, (9S,13S,19aR,22R)-22-benzyl-13-isobutyl-12-methyl-7,11,14,20-tetraoxo-N-(4-(pyrimidin-2-yl)phenethyl)-7,8,9,10,11,12,13,14,17,18,19,19a,20,21,22,23-hexadecahydro-16H-pyrido[2′,1′:6,7][1]oxa[4,7,10,14]tetraazacycloheptadecino[17,16-c]quinoline-9-carboxamide]"

SMILES,EC50,Emax
"CC(C)C[C@H]1C(=O)N(C)C2(CC2)C(=O)N[C@H](Cc2ccccc2)COc2cnc3ccccc3c2C(=O)N[C@H](C(=O)NCCc2ccccc2)CC(=O)N1C [Example 108, (3′S,7′S,13′R)-13′-benzyl-7′-isobutyl-6′,9′-dimethyl-1′,5′,8′,11′-tetraoxo-N-phenethyl-2′,3′,4′,5′,6′,7′,8′,9′,11′,12′,13′,14′-dodecahydro-1′H-spiro[cyclopropane-1,10′-[1]oxa[4,7,10,14]tetraazacycloheptadecino[17,16-c]quinoline]-3′-carboxamide]",581 nM,222%
"COc1cc(CCNC(=O)[C@@H]2CC(=O)N(C)[C@@H](CC(C)C)C(=O)N(C)C3(CC3)C(=O)N[C@H](Cc3ccccc3)COc3cnc4ccccc4c3C(=O)N2)cc(OC)c1 [Example 109, (3′S,7′S,13′R)-13′-benzyl-N-(3,5-dimethoxyphenethyl)-7′-isobutyl-6′,9′-dimethyl-1′,5′,8′,11′-tetraoxo-2′,3′,4′,5′,6′,7′,8′,9′,11′,12′,13′,14′-dodecahydro-1′H-spiro[cyclopropane-1,10′-[1]oxa[4,7,10,14]tetraazacycloheptadecino[17,16-c]quinoline]-3′-carboxamide]",231 nM,321%
"CC(C)C[C@H]1C(=O)N(C)C2(CC2)C(=O)N[C@H](Cc2ccccc2)COc2cnc3ccccc3c2C(=O)N[C@H](C(=O)NCCc2c(F)cccc2F)CC(=O)N1C [Example 110, (3′S,7′S,13′R)-13′-benzyl-N-(2,6-difluorophenethyl)-7′-isobutyl-6′,9′-dimethyl-1′,5′,8′,11′-tetraoxo-2′,3′,4′,5′,6′,7′,8′,9′,11′,12′,13′,14′-dodecahydro-1′H-spiro[cyclopropane-1,10′-[1]oxa[4,7,10,14]tetraazacycloheptadecino[17,16-c]quinoline]-3′-carboxamide]",478 nM,261%
"COc1ccc(CCNC(=O)[C@@H]2CC(=O)N(C)[C@@H](CC(C)C)C(=O)N(C)C3(CC3)C(=O)N[C@H](Cc3ccccc3)COc3cnc4ccccc4c3C(=O)N2)cc1 [Example 111, (3′S,7′S,13′R)-13′-benzyl-7′-isobutyl-N-(4-methoxyphenethyl)-6′,9′-dimethyl-1′,5′,8′,11′-tetraoxo-2′,3′,4′,5′,6′,7′,8′,9′,11′,12′,13′,14′-dodecahydro-1′H-spiro[cyclopropane-1,10′-[1]oxa[4,7,10,14]tetraazacycloheptadecino[17,16-c]quinoline]-3′-carboxamide]",392 nM,242%
"Cc1cccc(CCNC(=O)[C@@H]2CC(=O)N(C)[C@@H](CC(C)C)C(=O)N(C)C3(CC3)C(=O)N[C@H](Cc3ccccc3)COc3cnc4ccccc4c3C(=O)N2)c1 [Example 112, (3′S,7′S,13′R)-13′-benzyl-7′-isobutyl-6′,9′-dimethyl-N-(3-methylphenethyl)-1′,5′,8′,11′-tetraoxo-2′,3′,4′,5′,6′,7′,8′,9′,11′,12′,13′,14′-dodecahydro-1′H-spiro[cyclopropane-1,10′-[1]oxa[4,7,10,14]tetraazacycloheptadecino[17,16-c]quinoline]-3′-carboxamide]",817 nM,200%
"CC(C)C[C@H]1C(=O)N(C)C2(CC2)C(=O)N[C@H](Cc2ccccc2)COc2cnc3ccccc3c2C(=O)N[C@H](C(=O)NCCc2noc(C3CC3)n2)CC(=O)N1C [Example 115, (3′S,7′S,13′R)-13′-benzyl-N-(2-(5-cyclopropyl-1,2,4-oxadiazol-3-yl)ethyl)-7′-isobutyl-6′,9′-dimethyl-1′,5′,8′,11′-tetraoxo-2′,3′,4′,5′,6′,7′,8′,9′,11′,12′,13′,14′-dodecahydro-1′H-spiro[cyclopropane-1,10′-[1]oxa[4,7,10,14]tetraazacycloheptadecino[17,16-c]quinoline]-3′-carboxamide]",380 nM,250%
